What was measured:
[1] = target: T1, HCV polymerase (NS5B) type 1b (Hepatitis C virus genotype 1b, UniProt P26663); assay: Assay of enzyme (HCV polymerase) inhibitory activity, type 1b enzyme; format: biochemical, HCV BK strain (type 1b)
T1 construct: a region encoding NS5B (J Virol 1991 March, 65(3), 1105-13, 544 amino acids after deletion of 47 amino acids on the C-terminal); 6xHis (C); made in house; host or cells: Escherichia coli
Method in brief: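 IC50 derived from [3H]UTP incorporation into TCA-insoluble RNA, compared with and without test compound. Reaction (25 °C, 60 min, Tris pH 7.5, 5 mM MgCl2): E. coli-expressed 1b NS5B Δ47 with His tag at 0.5 μg/ml, 5 μg/ml run-off substrate RNA, ATP/GTP/CTP 50 μM, UTP 2 μM.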

[2] = target: T2, HCV polymerase (NS5B) type 1a (Hepatitis C virus genotype 1a, UniProt P26664); assay: Assay of enzyme (HCV polymerase) inhibitory activity, type 1a enzyme; format: biochemical, HCV type 1a (cloned from the blood of patients)
T2 construct: made in house; host or cells: Escherichia coli (by the 'similar method' of the 1b enzyme)
Method in brief: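 Reactions ran 60 min at 25° C in 20 mM Tris-HCl pH 7.5, 5 mM MgCl2, 50 mM NaCl, holding genotype 1a NS5B (1.5 μg/ml, Δ47 C-terminus, 6His), substrate RNA 5 μg/ml, UTP 2 μM with tritiated UTP and other NTPs 50 μM. IC50 derived from incorporated radiolabel in filter-trapped RNA relative to uninhibited reaction.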

[3] = HCV polymerase inhibitory activity IC50, 1b, type 1b enzyme
[4] = HCV polymerase inhibitory activity IC50, 1a, type 1a enzyme
[5] = HCV polymerase inhibitory activity (IC50), 1b, type 1b enzyme 0.5 μg/ml, 25° C., 60 min
[6] = HCV polymerase inhibitory activity (IC50), 1a, type 1a enzyme 1.5 μg/ml, 25° C., 60 min

| Structure (SMILES) | IC50 [1, 3] [nM] | IC50 [2, 4] [nM] | IC50 [1, 5] [nM] | IC50 [2, 6] [nM] |
| --- | --- | --- | --- | --- |
| CCCc1ccc(CNC(=O)[C@H]2CN(C(=O)Nc3ccccc3C(=O)O)CCN2S(=O)(=O)c2ccc(OC(F)(F)F)cc2)cc1 [Example 838, 2-{[(R)-3-(4-propyl-benzylcarbamoyl)-4-(4-trifluoromethoxy-benzenesulfonyl)-piperazine-1-carbonyl]-amino}-benzoic acid] | > 1000 | > 1000 |  |  |
| CC(=O)N1CCN(S(=O)(=O)c2ccc(OC(F)(F)F)cc2)[C@@H](C(=O)NCc2ccc(-c3ccccn3)s2)C1 [Example 598, (R)-4-acetyl-1-(4-trifluoromethoxy-benzenesulfonyl)-piperazine-2-carboxylic acid (5-pyridin-2-yl-thiophen-2-ylmethyl)-amide] |  |  | 100 to 1000 | 100 to 1000 |
| CC(=O)N1CCN(S(=O)(=O)c2ccc(OC(F)(F)F)cc2)[C@@H](C(=O)NCc2ccccc2-c2ccccc2)C1 [Example 642, (R)-4-acetyl-1-(4-trifluoromethoxy-benzenesulfonyl)-piperazine-2-carboxylic acid (biphenyl-2-ylmethyl)-amide] |  |  | > 1000 | > 1000 |
| CC(=O)N1CCN(S(=O)(=O)c2ccc(OC(F)(F)F)c(CCCC(=O)O)c2)[C@@H](C(=O)NCc2ccc(C(C)C)cc2)C1 [Example 11, 4-{5-[(R)-4-acetyl-2-(4-isopropyl-benzylcarbamoyl)-piperazine-1-sulfonyl]-2-trifluoromethoxy-phenyl}-butyric acid] |  |  | < 100 | < 100 |
| CC(=O)N1CCN(S(=O)(=O)c2ccc(-c3ccc(Cl)cc3)s2)C(C(=O)NCc2ccc(C(F)(F)F)cc2)C1 (centres unmarked) [Example 28, 4-acetyl-1-[5-(4-chloro-phenyl)-thiophene-2-sulfonyl]-piperazine-2-carboxylic acid 4-trifluoromethyl-benzylamide] |  |  | > 1000 | > 1000 |
| O=C(NCc1ccc(OC(F)(F)F)cc1)[C@H]1CN(c2nc3nc(C4CC4)ncc3s2)CCN1S(=O)(=O)c1ccc(OC(F)(F)C(F)F)cc1 [Example 1020, (R)-4-(5-cyclopropyl-thiazolo[4,5-d]pyrimidin-2-yl)-1-[4-(1,1,2,2-tetrafluoro-ethoxy)-benzenesulfonyl]-piperazine-2-carboxylic acid 4-trifluoromethoxy-benzylamide] | < 100 | < 100 |  |  |
| CCCc1ccc(CNC(=O)[C@H]2CN(C(=O)Cn3nnc(CC(=O)OCC)n3)CCN2S(=O)(=O)c2ccc(OC(F)(F)F)cc2)cc1 [Example 455, (2-{2-oxo-2-[(R)-3-(4-propyl-benzylcarbamoyl)-4-(4-trifluoromethoxy-benzenesulfonyl)-piperazin-1-yl]-ethyl}-2H-tetrazol-5-yl)-acetic acid ethyl ester] |  |  | < 100 | < 100 |
| CC(=O)N1CCN(S(=O)(=O)c2ccc(C(C)C)cc2)C(C(=O)NCc2ccc(S(N)(=O)=O)cc2)C1 (centres unmarked) [Example 38, 4-acetyl-1-(4-isopropyl-benzenesulfonyl)-piperazine-2-carboxylic acid 4-sulfamoyl-benzylamide] |  |  | > 1000 | > 1000 |
| CNC(=O)c1cncc2ncc(N3CCN(S(=O)(=O)c4ccc(OC(F)(F)F)cc4)[C@@H](C(=O)NCc4ccc(OC(F)(F)F)cc4)C3)nc12 [Example 865, 2-[(R)-4-(4-trifluoromethoxy-benzenesulfonyl)-3-(4-trifluoromethoxy-benzylcarbamoyl)-piperazin-1-yl]-pyrido[3,4-b]pyrazine-8-carboxylic acid methylamide] | < 100 | < 100 |  |  |
| CCc1ccc(CNC(=O)[C@H]2CN(c3nc(C)c(C(=O)O)s3)CCN2S(=O)(=O)c2ccc(OC(F)(F)F)cc2)cc1 [Example 366, 2-[(R)-3-(4-ethyl-benzylcarbamoyl)-4-(4-trifluoromethoxy-benzenesulfonyl)-piperazin-1-yl]-4-methyl-thiazole-5-carboxylic acid] |  |  | < 100 | < 100 |
| O=C(NCc1ccc(OC(F)(F)F)cc1)[C@H]1CN(c2nc3c(Cl)nncc3s2)CCN1S(=O)(=O)c1ccc(OC(F)(F)F)cc1 [Example 985, (R)-4-(4-chloro-thiazolo[4,5-d]pyridazin-2-yl)-1-(4-trifluoromethoxy-benzenesulfonyl)-piperazine-2-carboxylic acid 4-trifluoromethoxy-benzylamide] | < 100 | < 100 |  |  |
| COc1ccc(S(=O)(=O)N2CCN(C(C)=O)C[C@@H]2C(=O)NCc2ccc(C(C)C)cc2)cc1C(C)(C)C [Example 240, (R)-4-acetyl-1-(3-tert-butyl-4-methoxy-benzenesulfonyl)-piperazine-2-carboxylic acid 4-isopropyl-benzylamide] |  |  | < 100 | 100 to 1000 |
| C#Cc1ncc2sc(N3CCN(S(=O)(=O)c4ccc(OC(F)(F)F)cc4)[C@@H](C(=O)NCc4ccc(OC(F)(F)F)cc4)C3)nc2n1 [Example 995, (R)-4-(5-ethynyl-thiazolo[4,5-d]pyrimidin-2-yl)-1-(4-trifluoromethoxy-benzenesulfonyl)-piperazine-2-carboxylic acid 4-trifluoromethoxy-benzylamide] | < 100 | < 100 |  |  |
| CC(=O)N1CCN(S(=O)(=O)c2ccc(OC(F)(F)F)cc2)[C@@H](C(=O)NCc2ccc(-c3cccs3)s2)C1 [Example 622, (R)-4-acetyl-1-(4-trifluoromethoxy-benzenesulfonyl)-piperazine-2-carboxylic acid ([2,2′]bithiophenyl-5-ylmethyl)-amide] |  |  | 100 to 1000 | < 100 |
| Cc1nc(N2CCN(S(=O)(=O)c3ccc(OC(F)(F)F)cc3)[C@@H](C(=O)NCc3ccc(OC(F)(F)F)cc3)C2)sc1C(=O)O [Example 365, 4-methyl-2-[(R)-4-(4-trifluoromethoxy-benzenesulfonyl)-3-(4-trifluoromethoxy-benzylcarbamoyl)-piperazin-1-yl]-thiazole-5-carboxylic acid] |  |  | < 100 | < 100 |
| CC(C)c1ccc(S(=O)(=O)N2CCN(C(=O)C(C)(C)O)CC2C(=O)NCc2ccc(C(F)(F)F)cc2)cc1 (centres unmarked) [Example 56, 4-(2-hydroxy-2-methyl-propionyl)-1-(4-isopropyl-benzenesulfonyl)-piperazine-2-carboxylic acid 4-trifluoromethyl-benzylamide] |  |  | > 1000 | > 1000 |
| CC(=O)N1CCN(S(=O)(=O)c2ccc(C(C)C)cc2)[C@@H](C(=O)NCc2ccc(C(C)C)cc2C)C1 [Example 291, (R)-4-acetyl-1-(4-isopropyl-benzenesulfonyl)-piperazine-2-carboxylic acid 4-isopropyl-2-methyl-benzylamide] |  |  | < 100 | < 100 |
| O=C(NCc1ccc(OC(F)(F)F)cc1)[C@H]1CN(c2nc3nnncc3s2)CCN1S(=O)(=O)c1ccc(C(F)(F)F)cc1 [Example 1006, (R)-4-thiazolo[4,5-d][1,2,3]triazin-6-yl-1-(4-trifluoromethyl-benzenesulfonyl)-piperazine-2-carboxylic acid 4-trifluoromethoxy-benzylamide] | < 100 | < 100 |  |  |
| O=C(O)c1cnc(N2CCN(S(=O)(=O)c3ccc(Br)s3)[C@@H](C(=O)NCc3ccc(OC(F)(F)F)cc3)C2)cn1 [Example 787, (R)-4-(5-bromo-thiophene-2-sulfonyl)-3-(4-trifluoromethoxy-benzylcarbamoyl)-3,4,5,6-tetrahydro-2H-[1,2′]bipyrazinyl-5′-carboxylic acid] | < 100 | < 100 |  |  |

— patent US8017612B2, “Piperazine compound and use thereof as a HCV polymerase inhibitor” (priority 2006, dated 2011)
